Legend:
[1] = Pesticide residue in treated whole red chilli: Novaluron; settings: whole red chilli 12 kg's, Trial 1; HOCL and Trioxygen simultaneously
Text: (§1) This experiment illustrates the treatment of whole red chilli contaminated with pesticide residues.
(§2) The data presented in Table-6 illustrates the efficacy of the present disclosure in detoxifying contaminated whole red chillies. Sets of whole red chillies of 12 kg's contaminated with pesticides like Azoxystrobin, Imidacloprid Novaluron and Myclobutanil were used for the experiment. An inert gas (Nitrogen & Carbon-di-oxide) were introduced into the chamber filled with the material to drive out existing air and oxygen in the chamber. Pre-conditioning was carried out with HOCL and trioxygen being introduced simultaneously in decontamination chamber with faster decontamination process in the system with a shorter timeline protocol.
(§3) The red chillies were exposed with HOCL and Trioxygen simultaneously for 2 minutes. The products were put under pressure of 2 bar of trioxygen gas for a span of 9 minutes to 26 minutes. Based on the commodity characteristics, the exposure of trioxygen gas was repeated 10 times. Trioxygen gas having a capacity 500 g/h was generated by the trioxygen generator (on site) of the system with a constant oxygen flow rate and delivered to the decontamination chamber through silicon tube. The whole red chillies were then treated to heated air.

E. coli = test: Detection of E. coli in treated whole red chilli; settings: whole red chilli 12 kg's, Trial 3
Method: (§4) This experiment illustrates the treatment of aerobic micro-organisms, yeast, mould, coliform, E. coli, Salmonella and fat soluble metabolites contaminated whole red chilli.
(§5) The data presented in Table-2 illustrate the efficacy of the present disclosure in detoxifying contaminated whole red chillies. […].
(§6) The red chillies were exposed with Trioxygen for 2 minutes. The products were put under pressure of trioxygen gas for a span of 9 minutes to 26 minutes. Based on the commodity characteristics, the exposure of trioxygen gas was repeated 10 times. Trioxygen gas having a capacity 500 g/h was generated by the trioxygen generator (on site) of the system with a constant oxygen flow rate and delivered to the decontamination chamber through silicon tube. The whole red chillies were then treated to heated air.

[2] = C17H12O6 content of treated whole red chilli; settings: whole red chilli 12 kg's
Method: as §4, §5, §6

coliform = test: Coliform Count of treated whole red chilli; settings: whole red chilli 12 kg's
Method: as §4, §5, §6

[3] = Pesticide residue in treated whole red chilli: Azoxystrobin; settings: whole red chilli 12 kg's, Trial 1; HOCL and Trioxygen simultaneously
Text: as §1, §2, §3

[4] = C17H12O6 content of treated groundnuts; settings: groundnut
Method: The data presented in Table-3 illustrates the efficiency of the system of the present disclosure in detoxifying contaminated groundnuts.
Three sets of C17H12O6 contaminated 3 kg's, 60 kg's and 60 kg's of groundnuts were separately pre-conditioned and decontaminated in the system. In this case, groundnuts were pre-conditioned and exposed with trioxygen gas for up to 5 minutes. The products were put under pressure of trioxygen gas for a span of 9 minutes to 26 minutes. Based on the commodity characteristics, the exposure of trioxygen gas was repeated 15 times. Trioxygen gas having capacity 500 g/h was generated by the trioxygen generator of the system (on site) with a constant oxygen flow rate and delivered to the decontamination chamber through silicon tube. All 3 sets of products were heated and then analyzed for the presence of the contaminant and the results obtained are summarized in Table-3.

weevils and weevil eggs [5] = test: Shelf-Life Assessment of Groundnut; set-up: key to Visual observation: Powder at the bottom of bag / Weevils/Insects / Visual observation: Pin holes on grain: ✓ Not observed; x Observed; settings: for Visual observation: Pin holes on grain / Visual observation: Powder at the bottom of bag / Weevils/Insects: Treated sample
Method: (§7) The data presented in Table-5 illustrates the efficiency of the system of the present disclosure in pre-conditioning and deactivation of weevils and weevil eggs results in delayed occurrence of insect infestation in grains.
(§8) Grains such as Dry corn, Groundnut, Rice & Wheat were separately pre-conditioned and decontaminated in the system of the present disclosure. Grains were exposed to trioxygen gas for up to 5 minutes. The products were put under pressure of trioxygen gas for a span of 9 minutes to 26 minutes. Trioxygen gas having capacity 500 g/h was generated by the trioxygen generator of the system (on site) with a constant oxygen flow rate and delivered to the decontamination chamber through silicon tube. All products were treated with hot air and then analyzed for the presence of the weevils and weevil eggs the results obtained are summarized in Table-5.

[6] = Pesticide residue in treated whole red chilli: Myclobutanil; settings: whole red chilli 12 kg's, Trial 1; HOCL and Trioxygen simultaneously
Text: as §1, §2, §3

aerobic micro-organisms = test: Aerobic/Total Plate Count of whole red chilli after pre-conditioning, trioxygen and heated air; settings: whole red chilli 12 kg's
Method: as §4, §5, §6

weevils and weevil eggs [7] = test: Shelf-Life Assessment of Rice; set-up: key to Visual observation: Pin holes on grain / Visual observation: Powder at the bottom of bag / Weevils/Insects: ✓ Not observed; x Observed; settings: for Visual observation: Pin holes on grain / Visual observation: Powder at the bottom of bag / Weevils/Insects: Treated sample
Method: as §7, §8

[8] = Pesticide residue in treated whole red chilli: Imidacloprid; settings: whole red chilli 12 kg's, Trial 1; HOCL and Trioxygen simultaneously
Text: as §1, §2, §3

Compound: O=[O+][O-] [Trioxygen]
- Novaluron, % Reduction [1]: 100%
- Detection of E. coli, % Reduction (E. coli): 100%
- Detection of E. coli, Results After Treatment (E. coli; before treatment Present/25 g): Absent/25 g
- C17H12O6, % Reduction ([2]; Trial 2): 73%
- C17H12O6, % Reduction ([2]; Trial 3): 76%
- Coliform Count, % Reduction (coliform; Trial 1): 93%
- Coliform Count, Results After Treatment (coliform; Trial 1, before treatment 2.7 × 10^4 cfu/g): 1.82 × 10^3 cfu/g
- Coliform Count, % Reduction (coliform; Trial 3): 100%
- Coliform Count, Results After Treatment (coliform; Trial 3, before treatment 5.45 × 10^3 cfu/g): <10 cfu/g
- Azoxystrobin, % Reduction [3]: 62%
- C17H12O6, % Reduction ([4]; Sr. No. 1, 3 kg's): 100%
- C17H12O6, % Reduction ([4]; Sr. No. 2, 60 kg's): 93%
- C17H12O6, % Reduction ([4]; Sr. No. 3, 60 kg's): 64%
- No weevil infestation in system treated samples up to (weevils and weevil eggs [5]): up to 6 months
- Treatment effective in delaying infestation up to (weevils and weevil eggs [5]): up to 6 months
- Remarks on Weevils/Insects, Treated (weevils and weevil eggs [5]; Post 1.5 Months): No weevils/insects
- Remarks on Weevils/Insects, Treated (weevils and weevil eggs [5]; Post 2 Months): No weevils/insects
- Remarks on Weevils/Insects, Treated (weevils and weevil eggs [5]; Post 3 Months): No weevils/insects
- Remarks on Weevils/Insects, Treated (weevils and weevil eggs [5]; Post 5 Months): No weevils/insects
- Remarks on Weevils/Insects, Treated (weevils and weevil eggs [5]; Post 6 Months): No weevils/insects
- Remarks on Weevils/Insects, Treated: insect observed alive, buff/cream, 5 mm long (weevils and weevil eggs [5]; Post 7 Months): 1 insect observed -
- Visual observation: Pin holes on grain (weevils and weevil eggs [5]; 1.5 Months): ✓
- Visual observation: Powder at the bottom of bag (weevils and weevil eggs [5]; 1.5 Months): ✓
- Weevils/Insects (weevils and weevil eggs [5]; 1.5 Months): ✓
- Visual observation: Pin holes on grain (weevils and weevil eggs [5]; 2 Months): ✓
- Visual observation: Powder at the bottom of bag (weevils and weevil eggs [5]; 2 Months): ✓
- Weevils/Insects (weevils and weevil eggs [5]; 2 Months): ✓
- Visual observation: Pin holes on grain (weevils and weevil eggs [5]; 3 Months): ✓
- Visual observation: Powder at the bottom of bag (weevils and weevil eggs [5]; 3 Months): ✓
- Weevils/Insects (weevils and weevil eggs [5]; 3 Months): ✓
- Visual observation: Pin holes on grain (weevils and weevil eggs [5]; 5 Months): ✓
- Visual observation: Powder at the bottom of bag (weevils and weevil eggs [5]; 5 Months): ✓
- Weevils/Insects (weevils and weevil eggs [5]; 5 Months): ✓
- Visual observation: Pin holes on grain (weevils and weevil eggs [5]; 6 Months): ✓
- Visual observation: Powder at the bottom of bag (weevils and weevil eggs [5]; 6 Months): ✓
- Weevils/Insects (weevils and weevil eggs [5]; 6 Months): ✓
- Visual observation: Pin holes on grain (weevils and weevil eggs [5]; 7 Months): ✓
- Visual observation: Powder at the bottom of bag (weevils and weevil eggs [5]; 7 Months): ✓
- Weevils/Insects (weevils and weevil eggs [5]; 7 Months): x
- Number of weevils in treated sample, times less than that in control sample (weevils and weevil eggs [5]; at month 7): 3 times
- Myclobutanil, % Reduction [6]: 100%
- Aerobic Plate Count, % Reduction (aerobic micro-organisms; Trial 1): 97%
- Aerobic Plate Count, Results After Treatment (aerobic micro-organisms; Trial 1, before treatment 9.82 × 10^8 cfu/g): 3.0 × 10^7 cfu/g
- Total Plate Count, % Reduction (aerobic micro-organisms; Trial 2): 80%
- Total Plate Count, Results After Treatment (aerobic micro-organisms; Trial 2, before treatment 1.85 × 10^8 cfu/g): 3.72 × 10^7 cfu/g
- Total Plate Count, % Reduction (aerobic micro-organisms; Trial 3): 97%
- Total Plate Count, Results After Treatment (aerobic micro-organisms; Trial 3, before treatment 2.4 × 10^7 cfu/g): 8.36 × 10^5 cfu/g
- No weevil infestation in system treated samples up to (weevils and weevil eggs [7]): up to 6 months
- Treatment effective in delaying infestation up to (weevils and weevil eggs [7]): up to 6 months
- Remarks on Weevils/Insects, Treated (weevils and weevil eggs [7]; Post 1.5 Months): No weevils/insects seen
- Remarks on Weevils/Insects, Treated (weevils and weevil eggs [7]; Post 2 Months): No weevils/insects seen
- Remarks on Weevils/Insects, Treated (weevils and weevil eggs [7]; Post 3 Months): No weevils/insects seen
- Remarks on Weevils/Insects, Treated (weevils and weevil eggs [7]; Post 5 Months): No weevils/insects seen
- Remarks on Weevils/Insects, Treated (weevils and weevil eggs [7]; Post 6 Months): No weevils/insects seen
- Remarks on Weevils/Insects, Treated: black insect alive (weevils and weevil eggs [7]; Post 7 Months): insects and 1 black insect
- Remarks on Weevils/Insects, Treated: small cream coloured insects alive (weevils and weevil eggs [7]; Post 7 Months): 1 small cream coloured
- Visual observation: Pin holes on grain (weevils and weevil eggs [7]; 1.5 Months): ✓
- Visual observation: Powder at the bottom of bag (weevils and weevil eggs [7]; 1.5 Months): ✓
- Weevils/Insects (weevils and weevil eggs [7]; 1.5 Months): ✓
- Visual observation: Pin holes on grain (weevils and weevil eggs [7]; 2 Months): ✓
- Visual observation: Powder at the bottom of bag (weevils and weevil eggs [7]; 2 Months): ✓
- Weevils/Insects (weevils and weevil eggs [7]; 2 Months): ✓
- Visual observation: Pin holes on grain (weevils and weevil eggs [7]; 3 Months): ✓
- Visual observation: Powder at the bottom of bag (weevils and weevil eggs [7]; 3 Months): ✓
- Weevils/Insects (weevils and weevil eggs [7]; 3 Months): ✓
- Visual observation: Pin holes on grain (weevils and weevil eggs [7]; 5 Months): ✓
- Visual observation: Powder at the bottom of bag (weevils and weevil eggs [7]; 5 Months): ✓
- Weevils/Insects (weevils and weevil eggs [7]; 5 Months): ✓
- Visual observation: Pin holes on grain (weevils and weevil eggs [7]; 6 Months): ✓
- Visual observation: Powder at the bottom of bag (weevils and weevil eggs [7]; 6 Months): ✓
- Weevils/Insects (weevils and weevil eggs [7]; 6 Months): ✓
- Visual observation: Pin holes on grain (weevils and weevil eggs [7]; 7 Months): ✓
- Visual observation: Powder at the bottom of bag (weevils and weevil eggs [7]; 7 Months): ✓
- Weevils/Insects (weevils and weevil eggs [7]; 7 Months): x
- Imidacloprid, % Reduction [8]: 40%

Source: US20250107543A1, “TREATMENT OF AGRICULTURAL, FOOD AND RELATED PRODUCTS FOR ELIMINATING CONTAMINANTS AND ENCHANCING SHELF-LIFE” (priority 2022, published 2025)
